Measured values published in patent publication US20140228377A1, “METHYLPIPERIDINE DERIVATIVE” (TAISHO PHARMACEUTICAL CO., LTD., priority 2011, published 2014).
Like-named read-outs stand apart in the source and are kept apart here.

Assays:
[1] = molecular target: T1, human orexin-1 receptor (hOX1R) (Homo sapiens, UniProt O43613); assay: Orexin antagonistic activity assay (intracellular Ca2+, FDSS) in CHO cells expressing hOX1R; type: cell-based
T1 construct: expressed in transfected cells; host or cells: Chinese hamster ovary (CHO) cells
T1 sequence (O43613 1-425): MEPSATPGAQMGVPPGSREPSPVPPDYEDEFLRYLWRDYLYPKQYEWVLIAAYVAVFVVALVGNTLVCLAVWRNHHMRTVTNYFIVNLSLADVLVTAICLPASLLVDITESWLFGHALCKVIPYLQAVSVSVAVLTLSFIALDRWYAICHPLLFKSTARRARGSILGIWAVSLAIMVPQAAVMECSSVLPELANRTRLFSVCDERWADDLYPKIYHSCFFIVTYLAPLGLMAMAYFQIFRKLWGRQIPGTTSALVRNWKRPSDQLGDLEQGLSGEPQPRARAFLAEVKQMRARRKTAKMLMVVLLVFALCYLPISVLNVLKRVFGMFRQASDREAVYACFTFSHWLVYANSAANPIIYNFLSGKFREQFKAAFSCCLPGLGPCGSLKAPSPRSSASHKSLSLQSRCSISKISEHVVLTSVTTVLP
Description: (§1) The antagonistic activity of each test compound against human orexin-1 receptor (hOX1R) and orexin-2 receptor (hOX2R) was assayed by a modification of a method described in the literature (Toshikatsu Okumura et al., Biochemical and Biophysical Research Communications 280, 976-981, 2001). Chinese hamster ovary (CHO) cells forced to express hOX1R or hOX2R were inoculated at a density of 20,000 cells/well to a 96-well Black clear bottom plate (Nunc) and cultured at 37° C. for 16 hours under 5% CO2 conditions in a Ham's F-12 medium containing 0.1 mM MEM nonessential amino acids, 0.5 mg/ml G418, and 10% fetal bovine serum (all from Invitrogen Corp.). After removal of the medium, 100 μL of a buffer solution for assay (25 mM HEPES (Dojindo Laboratories), Hanks' balanced salt solution (Invitrogen Corp.), 0.1% bovine serum albumin, 2.5 mM probenecid, and 200 μg/ml Amaranth (all from Sigma-Aldrich Corp.), pH 7.4) containing 0.5 μM Fluo-3 AM ester (Dojindo Laboratories) was added to the cells, which were then incubated at 37° C. for 60 minutes under 5% CO2 conditions. After removal of the buffer solution for assay containing Fluo-3 AM ester, each test compound was dissolved at a concentration of 10 mM in dimethyl sulfoxide and diluted with a buffer solution for assay. Then, 150 μL of the solution was added to the cells, which were then incubated for 30 minutes.
(§2) A ligand peptide (Pyr-[…]NH2; Peptide Institute, Inc.) derived from human orexin-A by the substitution of two amino acids was diluted with a buffer solution for assay to final concentrations of 300 pM for hOX1R and 3 nM for hOX2R. Reaction was initiated by the addition of 50 μL of this ligand solution. The fluorescence intensity of the reaction was measured in each well every second for 3 minutes using Functional Drug Screening System (FDSS; manufactured by Hamamatsu Photonics K.K.), and the maximum fluorescence intensity was used as an index for intracellular Ca^2+ concentration to determine antagonistic activity. The antagonistic activity of the test compound was calculated with fluorescence intensity from a well supplemented with only a diluting buffer solution as 100% and fluorescence intensity from a well supplemented with a buffer solution free from the ligand and the compound as 0%. The 50% inhibitory concentration (IC50 value) was determined on the basis of fluorescence intensity derived from the test compound added at varying concentrations.

[2] = molecular target: T2, orexin-2 receptor (hOX2R) (Homo sapiens, UniProt O43614); assay: Orexin antagonistic activity assay (intracellular Ca2+, FDSS) in CHO cells expressing hOX2R; type: cell-based
T2 construct: expressed in transfected cells; host or cells: Chinese hamster ovary (CHO) cells
T2 sequence (O43614 1-444): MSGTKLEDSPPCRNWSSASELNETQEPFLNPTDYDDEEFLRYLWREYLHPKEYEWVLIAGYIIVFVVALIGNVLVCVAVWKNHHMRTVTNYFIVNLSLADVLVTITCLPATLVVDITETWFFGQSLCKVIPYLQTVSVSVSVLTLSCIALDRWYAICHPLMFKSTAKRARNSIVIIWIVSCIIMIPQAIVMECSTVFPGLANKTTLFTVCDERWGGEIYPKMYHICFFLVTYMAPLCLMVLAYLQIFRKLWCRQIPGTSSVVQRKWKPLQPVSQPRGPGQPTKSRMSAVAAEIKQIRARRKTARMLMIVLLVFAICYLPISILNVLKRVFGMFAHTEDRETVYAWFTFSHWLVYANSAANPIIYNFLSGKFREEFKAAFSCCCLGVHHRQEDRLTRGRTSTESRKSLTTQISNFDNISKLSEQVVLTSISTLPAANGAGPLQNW
Description: as §1, §2

[3] = CHO cells expressing hOX1R, ligand peptide 300 pM, Fluo-3 maximum fluorescence intensity, read-out: IC50 value OX1
[4] = CHO cells expressing hOX2R, ligand peptide 3 nM, Fluo-3 maximum fluorescence intensity, read-out: IC50 value OX2

With `C[C@@H]1CC[C@@H](c2nc3cc(Cl)ccc3o2)CN1C(=O)c1cc(F)ccc1-n1nccn1` (single isomer, unassigned) [Example 2, [(2R*,5R*)-5-(5-Chloro-1,3-benzoxazol-2-yl)-2-methylpiperidin-1-yl][5-fluoro-2-(2H-1,2,3-triazol-2-yl)phenyl]methanone] the IC50 [1, 3] was 19.8 nM and the IC50 [2, 4] was 8.7 nM.
For `C[C@@H]1CC[C@@H](c2nc3cc(Cl)ccc3o2)CN1C(=O)c1ccccc1-n1nccn1` (single isomer, unassigned) [Example 3, [(2R*,5R*)-5-(5-Chloro-1,3-benzoxazol-2-yl)-2-methylpiperidin-1-yl][2-(2H-1,2,3-triazol-2-yl)phenyl]methanone], the IC50 [1, 3] was 18.1 nM and the IC50 [2, 4] was 4.1 nM.
`Cc1ccc(-c2ncccn2)c(C(=O)N2CC(c3nc4cc(Cl)ccc4o3)CC[C@H]2C)n1` (single isomer, unassigned) [Example 4, [(2R*,5R*)-5-(5-Chloro-1,3-benzoxazol-2-yl)-2-methylpiperidin-1-yl][6-methyl-3-(pyrimidin-2-yl)pyridin-2-yl]methanone] showed an IC50 [1, 3] of 4.3 nM and an IC50 [2, 4] of 17.2 nM.
With `Cc1ccc(-c2ncccn2)c(C(=O)N2C[C@H](c3nc4cc(Cl)ccc4o3)CC[C@H]2C)c1` (single isomer, unassigned) [Example 5, [(2R*,5R*)-5-(5-Chloro-1,3-benzoxazol-2-yl)-2-methylpiperidin-1-yl][5-methyl-2-(pyrimidin-2-yl)phenyl]methanone] the IC50 [1, 3] was 3.1 nM and the IC50 [2, 4] was 4.3 nM.
For `C[C@@H]1CC[C@@H](c2nc3cc(Cl)ccc3o2)CN1C(=O)c1cc(F)ccc1-c1ncccn1` (single isomer, unassigned) [Example 6, [(2R*,5R*)-5-(5-Chloro-1,3-benzoxazol-2-yl)-2-methylpiperidin-1-yl][5-fluoro-2-(pyrimidin-2-yl)phenyl]methanone], the IC50 [1, 3] was 54.5 nM and the IC50 [2, 4] was 2.9 nM.
`C[C@@H]1CC[C@@H](c2nc3cc(Cl)ccc3o2)CN1C(=O)c1ccccc1-c1ncccn1` (single isomer, unassigned) [Example 7, [(2R*,5R*)-5-(5-Chloro-1,3-benzoxazol-2-yl)-2-methylpiperidin-1-yl][2-(pyrimidin-2-yl)phenyl]methanone] gave an IC50 [1, 3] of 49.5 nM and an IC50 [2, 4] of 2 nM.
`Cc1ccc(-c2ncccn2)c(C(=O)N2C[C@H](c3nc4cc(F)ccc4o3)CC[C@H]2C)c1` (single isomer, unassigned) [Example 8, [(2R*,5R*)-5-(5-Fluoro-1,3-benzoxazol-2-yl)-2-methylpiperidin-1-yl][5-methyl-2-(pyrimidin-2-yl)phenyl]methanone] showed an IC50 [1, 3] of 0.7 nM and an IC50 [2, 4] of 2.1 nM.
`Cc1ccc(-n2nccn2)c(C(=O)N2C[C@H](c3nc4cc(Cl)ccc4o3)CC[C@H]2C)c1` (single isomer, unassigned) [Example 9, [(2R*,5R*)-5-(5-Chloro-1,3-benzoxazol-2-yl)-2-methylpiperidin-1-yl][5-methyl-2-(2H-1,2,3-triazol-2-yl)phenyl]methanone] gave an IC50 [1] of 1.2 nM and an IC50 [2] of 1.8 nM.
Work on `Cc1ccc(-n2nccn2)c(C(=O)N2C[C@H](c3nc4cc(F)ccc4o3)CC[C@H]2C)c1` (single isomer, unassigned) [Example 10, [(2R*,5R*)-5-(5-Fluoro-1,3-benzoxazol-2-yl)-2-methylpiperidin-1-yl][5-methyl-2-(2H-1,2,3-triazol-2-yl)phenyl]methanone] yielded an IC50 [1, 3] of 4.8 nM and an IC50 [2, 4] of 4.9 nM.
Compound `Cc1ccc(-n2nccn2)c(C(=O)N2C[C@H](c3nc4cc(F)ccc4o3)CC[C@H]2C)n1` (single isomer, unassigned) [Example 11, [(2R*,5R*)-5-(5-Fluoro-1,3-benzoxazol-2-yl)-2-methylpiperidin-1-yl][6-methyl-3-(2H-1,2,3-triazol-2-yl)pyridin-2-yl]methanone] has an IC50 [1, 3] of 42.1 nM and an IC50 [2, 4] of 43.7 nM.
`Cc1ccc(-n2nccn2)c(C(=O)N2C[C@H](c3nc4ccc(F)cc4o3)CC[C@H]2C)n1` (single isomer, unassigned) [Example 12, [(2R*,5R*)-5-(6-Fluoro-1,3-benzoxazol-2-yl)-2-methylpiperidin-1-yl][6-methyl-3-(2H-1,2,3-triazol-2-yl)pyridin-2-yl]methanone] gave an IC50 [1, 3] of 111 nM and an IC50 [2, 4] of 105 nM.
`C[C@@H]1CC[C@@H](c2nc3cc(Cl)ccc3o2)CN1C(=O)c1cc(Cl)ccc1-c1ncccn1` [Example 13, [(2R,5R)-5-(5-Chloro-1,3-benzoxazol-2-yl)-2-methylpiperidin-1-yl][5-chloro-2-(pyrimidin-2-yl)phenyl]methanone] showed an IC50 [1, 3] of 4.4 nM and an IC50 [2, 4] of 13 nM.
`C[C@@H]1CC[C@@H](c2nc3cc(Cl)ccc3o2)CN1C(=O)c1ccc(F)cc1-n1nccn1` [Example 14, [(2R,5R)-5-(5-Chloro-1,3-benzoxazol-2-yl)-2-methylpiperidin-1-yl][4-fluoro-2-(2H-1,2,3-triazol-2-yl)phenyl]methanone] gave an IC50 [1, 3] of 41.6 nM and an IC50 [2, 4] of 8.8 nM.
Compound `C[C@@H]1CC[C@@H](c2nc3cc(Cl)ccc3o2)CN1C(=O)c1cccc(F)c1-n1nccn1` [Example 15, [(2R,5R)-5-(5-Chloro-1,3-benzoxazol-2-yl)-2-methylpiperidin-1-yl][3-fluoro-2-(2H-1,2,3-triazol-2-yl)phenyl]methanone] has an IC50 [1, 3] of 142 nM and an IC50 [2, 4] of 9.7 nM.
`C[C@@H]1CC[C@@H](c2nc3cc(Cl)ccc3o2)CN1C(=O)c1c(F)cccc1-n1nccn1` [Example 16, [(2R5R)-5-(5-Chloro-1,3-benzoxazol-2-yl)-2-methylpiperidin-1-yl][2-fluoro-6-(2H-1,2,3-triazol-2-yl)phenyl]methanone] gave an IC50 [1, 3] of 25.6 nM and an IC50 [2, 4] of 3.6 nM.
`C[C@@H]1CC[C@@H](c2nc3cc(Cl)ccc3o2)CN1C(=O)c1ccc(F)cc1-c1ncccn1` [Example 17, [(2R,5R)-5-(5-Chloro-1,3-benzoxazol-2-yl)-2-methylpiperidin-1-yl][4-fluoro-2-(pyrimidin-2-yl)phenyl]methanone] gave an IC50 [1, 3] of 54.5 nM and an IC50 [2, 4] of 10.3 nM.
`C[C@@H]1CC[C@@H](c2nc3cc(Cl)ccc3o2)CN1C(=O)c1cccc(F)c1-c1ncccn1` [Example 18, [(2R,5R)-5-(5-Chloro-1,3-benzoxazol-2-yl)-2-methylpiperidin-1-yl][3-fluoro-2-(pyrimidin-2-yl)phenyl]methanone] showed an IC50 [1, 3] of 301 nM and an IC50 [2, 4] of 59.5 nM.
`C[C@@H]1CC[C@@H](c2nc3cc(Cl)ccc3o2)CN1C(=O)c1c(F)cccc1-c1ncccn1` [Example 19, [(2R,5R)-5-(5-Chloro-1,3-benzoxazol-2-yl)-2-methylpiperidin-1-yl][2-fluoro-6-(pyrimidin-2-yl)phenyl]methanone] showed an IC50 [1, 3] of 83.7 nM and an IC50 [2, 4] of 9.3 nM.
Work on `C[C@@H]1CC[C@@H](c2nc3cc(Cl)ccc3o2)CN1C(=O)c1cc(C(F)(F)F)ccc1-n1nccn1` [Example 20, [(2R,5R)-5-(5-Chloro-1,3-benzoxazol-2-yl)-2-methylpiperidin-1-yl][2-(2H-1,2,3-triazol-2-yl)-5-(trifluoromethyl)phenyl]methanone] yielded an IC50 [1, 3] of 108 nM and an IC50 [2, 4] of 55.7 nM.
In the case of `C[C@@H]1CC[C@@H](c2nc3cc(Cl)ccc3o2)CN1C(=O)c1cc(C#N)ccc1-n1nccn1` [Example 21], the IC50 [1, 3] is reported as 211 nM and the IC50 [2, 4] is reported as 155 nM.
